# Source: patent US20220119354A1, “DIAMINO-SUBSTITUTED PYRIDINES AND PYRIMIDINES AS HERBICIDES” (FMC Corporation, priority 2019, published 2022)
# What was measured:
# Type in all cases: in vivo
# [1] = test system: ragweed (common ragweed, Ambrosia elatior); test: Test A postemergence, ragweed; details: 1000 g ai/ha, 0 to 100 scale
# Procedure, shortened: (§1)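 Seeds sown in loam–sand blend received a directed soil spray of test chemical in non-phytotoxic solvent with surfactant (preemergence); postemergence plants at 2–10 cm, one- to two-leaf stage, were sprayed with the same formulation. Injury rated visually versus untreated controls after ~10 d in greenhouse, 0–100 scale.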
# [2] = test system: foxtail, giant (Setaria faberii); test: Test A preemergence, giant foxtail; details: 1000 g ai/ha, 0 to 100 scale
# Procedure, shortened: as §1
# [3] = test system: barnyardgrass (Echinochloa crus-galli); test: Test A postemergence, barnyardgrass; details: 1000 g ai/ha, 0 to 100 scale, 0 no effect, 100 complete control
# Procedure, shortened: as §1
# [4] = test system: barnyardgrass (Echinochloa crus-galli); test: Test A preemergence, barnyardgrass; details: 1000 g ai/ha, 0 to 100 scale
# Procedure, shortened: as §1
# [5] = test system: ragweed (common ragweed, Ambrosia elatior); test: Test A preemergence, ragweed; details: 1000 g ai/ha, 0 to 100 scale
# Procedure, shortened: as §1
# [6] = test system: ryegrass, Italian (Lolium multiflorum); test: Test A postemergence, Italian ryegrass; details: 1000 g ai/ha, 0 to 100 scale
# Procedure, shortened: as §1
# [7] = test system: sedge, umbrella (small-flower umbrella sedge, Cyperus difformis); test: Test B flooded paddy test, umbrella sedge; details: Flood, 250 g ai/ha, applied to paddy water, 2-leaf stage, visual evaluation after 13 to 15 d
# Procedure, shortened: (§2)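 Application was made into paddy water of pots flooded 3 cm deep at treatment, with seedlings at the 2-leaf stage. That flood level was kept throughout, and plants stayed under glass 13 to 15 d before visual assessment on a 0–100 control scale.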
# [8] = test system: pigweed (Amaranthus retroflexus); test: Test A preemergence, pigweed; details: 1000 g ai/ha, 0 to 100 scale
# Procedure, shortened: as §1
# [9] = test system: blackgrass (Alopecurus myosuroides); test: Test A postemergence, blackgrass; details: 1000 g ai/ha, 0 to 100 scale
# Procedure, shortened: as §1
# [10] = test system: pigweed (Amaranthus retroflexus); test: Test A postemergence, pigweed; details: 1000 g ai/ha, 0 to 100 scale
# Procedure, shortened: as §1
# [11] = test system: rice (Oryza sativa); test: Test B flooded paddy test, rice; details: Flood, 250 g ai/ha, applied to paddy water, 2-leaf stage, visual evaluation after 13 to 15 d
# Procedure, shortened: as §2
# [12] = test system: ducksalad (Heteranthera limosa); test: Test B flooded paddy test, ducksalad; details: Flood, 250 g ai/ha, applied to paddy water, 2-leaf stage, visual evaluation after 13 to 15 d
# Procedure, shortened: as §2
# [13] = test system: corn (Zea mays); test: Test A postemergence, corn; details: 1000 g ai/ha, 0 to 100 scale
# Procedure, shortened: as §1
# [14] = test system: barnyardgrass (Echinochloa crus-galli); test: Test B flooded paddy test, barnyardgrass; details: Flood, 250 g ai/ha, applied to paddy water, 2-leaf stage, visual evaluation after 13 to 15 d
# Procedure, shortened: as §2
# [15] = test system: wheat (Triticum aestivum); test: Test A postemergence, wheat; details: 1000 g ai/ha, 0 to 100 scale
# Procedure, shortened: as §1
# [16] = test system: ryegrass, Italian (Lolium multiflorum); test: Test A preemergence, Italian ryegrass; details: 1000 g ai/ha, 0 to 100 scale
# Procedure, shortened: as §1
# [17] = test system: kochia (Kochia scoparia); test: Test A postemergence, kochia; details: 1000 g ai/ha, 0 to 100 scale
# Procedure, shortened: as §1
# [18] = test system: kochia (Kochia scoparia); test: Test A preemergence, kochia; details: 1000 g ai/ha, 0 to 100 scale
# Procedure, shortened: as §1
# [19] = test system: foxtail, giant (Setaria faberii); test: Test A postemergence, giant foxtail; details: 1000 g ai/ha, 0 to 100 scale
# Procedure, shortened: as §1
# [20] = test system: galium (catchweed bedstraw, Galium aparine); test: Test A postemergence, galium; details: 1000 g ai/ha, 0 to 100 scale
# Procedure, shortened: as §1
smiles,measurement,setting,value
CC[C@@H](Nc1ncc(C(F)(F)F)c(N)n1)c1cc2ccccc2o1 [Compound 21],"Plant response rating, Ragweed",[1],80
same,"Plant response rating, Foxtail, Giant",[2],100
same,"Plant response rating, Barnyardgrass",[3],80
same,"Plant response rating, Barnyardgrass",[4],100
same,"Plant response rating, Ragweed",[5],100
same,"Plant response rating, Ryegrass, Italian",[6],50
same,"Plant response rating, Sedge, Umbrella (0 to 100 scale, 0 is no effect, 100 is complete control)",[7],65
same,"Plant response rating, Pigweed",[8],100
same,"Plant response rating, Blackgrass",[9],80
same,"Plant response rating, Pigweed",[10],100
same,"Plant response rating, Rice (0 to 100 scale, 0 is no effect, 100 is complete control)",[11],0
same,"Plant response rating, Ducksalad (0 to 100 scale, 0 is no effect, 100 is complete control)",[12],60
same,"Plant response rating, Corn",[13],100
same,"Plant response rating, Barnyardgrass (0 to 100 scale, 0 is no effect, 100 is complete control)",[14],0
same,"Plant response rating, Wheat",[15],0
same,"Plant response rating, Ryegrass, Italian",[16],80
same,"Plant response rating, Kochia",[17],90
same,"Plant response rating, Kochia",[18],80
same,"Plant response rating, Foxtail, Giant",[19],70
same,"Plant response rating, Galium",[20],80
"C[C@@H](Nc1ncc(C(F)(F)F)c(N)n1)c1cc2ccccc2o1 [Compound 22, N2-[(1R)-1-(2-benzofuranyl)ethyl]-5-(trifluoromethyl)-2,4-pyrimidinediamine]",pest or weed control at 1000 g/ha,"[1]; Ambrosia artemisiifolia, post-emergence, 240 h, read-out: Plant response rating, Ragweed",80%
same,"Plant response rating, Foxtail, Giant",[2],100
same,pest or weed control at 1000 g/ha,"[3]; Echinochloa crus-galli, post-emergence, 240 h, read-out: Plant response rating, Barnyardgrass",100%
same,"Plant response rating, Barnyardgrass",[4],100
same,"Plant response rating, Ragweed",[5],100
same,pest or weed control at 1000 g/ha,"[6]; Lolium multiflorum, post-emergence, 240 h, read-out: Plant response rating, Ryegrass, Italian",100%
same,pest or weed control at 250 g/ha,"[7]; Cyperus difformis, 360 h, read-out: Plant response rating, Sedge, Umbrella (0 to 100 scale, 0 is no effect, 100 is complete control)",95%
same,"Plant response rating, Pigweed",[8],100
same,pest or weed control at 1000 g/ha,"[9]; Alopecurus myosuroides, post-emergence, 240 h, read-out: Plant response rating, Blackgrass",90%
same,pest or weed control at 1000 g/ha,"[10]; Amaranthus retroflexus, post-emergence, 240 h, read-out: Plant response rating, Pigweed",100%
same,plant injury at 250 g/ha,"[11]; Oryza sativa, 360 h, read-out: Plant response rating, Rice (0 to 100 scale, 0 is no effect, 100 is complete control)",0%
same,pest or weed control at 250 g/ha,"[12]; Heteranthera limosa, 360 h, read-out: Plant response rating, Ducksalad (0 to 100 scale, 0 is no effect, 100 is complete control)",100%
same,"Corn plant response rating (crop injury, 0 = no effect, 100 = complete kill) at 1000 g/ha","[13]; Zea mays, post-emergence, 240 h",100%
same,pest or weed control at 250 g/ha,"[14]; Echinochloa crus-galli, 360 h, read-out: Plant response rating, Barnyardgrass (0 to 100 scale, 0 is no effect, 100 is complete control)",40%
same,plant injury at 1000 g/ha,"[15]; Triticum aestivum, post-emergence, 240 h, read-out: Plant response rating, Wheat",40%
same,"Plant response rating, Ryegrass, Italian",[16],100
same,pest or weed control at 1000 g/ha,"[17]; Bassia scoparia, post-emergence, 240 h, read-out: Plant response rating, Kochia",80%
same,"Plant response rating, Kochia",[18],100
same,pest or weed control at 1000 g/ha,"[19]; Setaria faberi, post-emergence, 240 h, read-out: Plant response rating, Foxtail, Giant",90%
same,pest or weed control at 1000 g/ha,"[20]; Galium, post-emergence, 240 h, read-out: Plant response rating, Galium",90%
